In patent publication US9902722B2, “Biaryl kinase inhibitors” (BRISTOL-MYERS SQUIBB COMPANY, priority 2014, dated 2018):
pIC50: −log10 of the molar value.

Molecular target: GST-Xa-hAAK1 (Homo sapiens (Human), UniProt Q2M2I8)
Test: AAK1 Kinase Assay;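 note: each compound tested across an eleven-point concentration series, with IC50 obtained through non-linear regression fitting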
Type: biochemical
Conditions: bacterially expressed GST-Xa-hAAK1 3.5 nM; ATP 22 μM; peptide substrate 1.5 μM; 3 hours at room temperature; Caliper LabChip 3000
Experimental: The assays were performed in U-bottom 384-well plates. […] The reactions were initiated by the combination of bacterially expressed, GST-Xa-hAAK1 with substrates and test compounds. The reactions were incubated at room temperature for 3 hours and terminated by adding 60 μl of 35 mM EDTA buffer to each sample. […] Compounds were dissolved at 10 mM in dimethylsulfoxide (DMSO) and evaluated at eleven concentrations. IC50 values were derived by non-linear regression analysis.

Sequence of GST-Xa-hAAK1 (Q2M2I8 whole entry): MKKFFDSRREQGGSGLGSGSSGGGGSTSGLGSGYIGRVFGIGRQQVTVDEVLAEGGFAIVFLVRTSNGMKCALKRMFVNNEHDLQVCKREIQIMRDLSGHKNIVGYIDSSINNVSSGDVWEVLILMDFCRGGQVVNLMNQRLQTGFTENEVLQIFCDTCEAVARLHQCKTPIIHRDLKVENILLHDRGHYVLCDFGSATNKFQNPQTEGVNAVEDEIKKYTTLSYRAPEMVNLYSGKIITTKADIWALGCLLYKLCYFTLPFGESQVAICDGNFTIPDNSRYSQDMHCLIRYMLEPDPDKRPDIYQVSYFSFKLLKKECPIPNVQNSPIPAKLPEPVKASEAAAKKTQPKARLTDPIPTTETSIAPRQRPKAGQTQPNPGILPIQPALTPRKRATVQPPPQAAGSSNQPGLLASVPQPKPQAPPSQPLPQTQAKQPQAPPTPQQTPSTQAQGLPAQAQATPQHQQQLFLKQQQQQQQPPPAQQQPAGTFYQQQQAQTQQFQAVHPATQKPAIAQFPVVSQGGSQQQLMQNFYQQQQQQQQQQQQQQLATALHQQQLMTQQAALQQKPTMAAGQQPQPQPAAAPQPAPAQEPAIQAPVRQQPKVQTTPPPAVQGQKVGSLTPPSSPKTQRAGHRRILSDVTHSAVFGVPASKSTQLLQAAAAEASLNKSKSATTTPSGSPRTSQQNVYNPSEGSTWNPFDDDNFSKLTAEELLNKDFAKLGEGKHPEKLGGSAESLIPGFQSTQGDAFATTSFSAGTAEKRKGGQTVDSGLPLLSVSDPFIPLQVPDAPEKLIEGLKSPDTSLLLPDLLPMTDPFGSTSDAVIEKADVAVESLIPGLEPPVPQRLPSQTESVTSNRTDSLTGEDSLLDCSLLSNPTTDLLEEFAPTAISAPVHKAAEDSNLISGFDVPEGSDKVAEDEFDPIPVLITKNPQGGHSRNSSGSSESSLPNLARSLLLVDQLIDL

Compound	pIC50
COC(=O)Nc1cc(-c2ccc(OC[C@@](C)(N)CC(C)C)c(C(F)F)c2)ccn1 [Example 24, (S)-methyl (4-(4-((2-amino-2,4-dimethylpentyl)oxy)-3-(difluoromethyl)phenyl)pyridin-2-yl)carbamate]	9.20
Cc1cc(-c2ccc(OC[C@@](C)(N)CC(C)C)c(C(F)(F)F)c2)c2ccccc2n1 [Example 216, (S)-2,4-dimethyl-1-(4-(2-methylquinolin-4-yl)-2-(trifluoromethyl)phenoxy)pentan-2-amine]	7.60
COC(=O)Nc1cc(-c2cc(C(F)F)c(OC[C@](N)(CF)CC(C)C)cn2)ccn1 [Example 181, (S)-methyl (5-((2-amino-2-(fluoromethyl)-4-methylpentyl)oxy)-4-(difluoromethyl)-[2,4′-bipyridin]-2′-yl)carbamate]	8.72
CC(C)C[C@](C)(N)COc1ccc(-c2ccnc(F)c2F)cc1C(F)(F)F [Example 42, (S)-1-(4-(2,3-difluoropyridin-4-yl)-2-(trifluoromethyl)phenoxy)-2,4-dimethylpentan-2-amine]	8.48
CC(C)C[C@](C)(N)COc1cnc(-c2ccnc3ccc(Cl)cc23)cc1Cl [Example 239, (S)-1-((4-chloro-6-(6-chloroquinolin-4-yl)pyridin-3-yl)oxy)-2,4-dimethylpentan-2-amine]	9.41
CC(C)C[C@](C)(O)COc1cnc(-c2ccnc3ccccc23)cc1C(F)F [Example 176, (S)-1-((4-(difluoromethyl)-6-(quinolin-4-yl)pyridin-3-yl)oxy)-2,4-dimethylpentan-2-ol]	7.28
Cc1cc(-c2cc(C(F)F)c(OC[C@@](C)(N)CC(C)C)cn2)cnn1 [Example 162, (S)-1-((4-(difluoromethyl)-6-(6-methylpyridazin-4-yl)pyridin-3-yl)oxy)-2,4-dimethylpentan-2-amine]	6.28
COc1cc(-c2ccnc(NC(C)=O)c2)ccc1OC[C@@H](N)CC(C)C [Example 2, (S)—N-(4-(4-((2-amino-4-methylpentyl)oxy)-3-methoxyphenyl)pyridin-2-yl)acetamide]	8.52
Cc1c(-c2ccc(OC[C@@](C)(N)CC(C)C)c(C(F)(F)F)c2)ccnc1F [Example 41, (S)-1-(4-(2-fluoro-3-methylpyridin-4-yl)-2-(trifluoromethyl)phenoxy)-2,4-dimethylpentan-2-amine]	8.42
CC(C)C[C@](C)(N)COc1ccc(-c2ccnc(C(F)F)c2)cc1C(F)F [Example 37, (S)-1-(2-(difluoromethyl)-4-(2-(difluoromethyl)pyridin-4-yl)phenoxy)-2,4-dimethylpentan-2-amine]	9.29
CC(=O)Nc1cc(-c2ccc(OC[C@@H](N)CC(C)C)c(C#N)c2)ccn1 [Example 3, (S)—N-(4-(4-((2-amino-4-methylpentyl)oxy)-3-cyanophenyl)pyridin-2-yl)acetamide]	9.52
CC(C)C[C@](C)(N)COc1cnc(-c2ccnc3cc(F)cc(F)c23)cc1C(F)F [Example 130, (S)-1-((4-(difluoromethyl)-6-(5,7-difluoroquinolin-4-yl)pyridin-3-yl)oxy)-2,4-dimethylpentan-2-amine]	8.85
Cc1cc(-c2cnc(OC[C@@](C)(N)CC(C)C)c(C(F)F)c2)ccn1 [Example 194, (S)-1-((5-(difluoromethyl)-2′-methyl-[3,4′-bipyridin]-6-yl)oxy)-2,4-dimethylpentan-2-amine]	8.82
Cc1cc(-c2ccnc3cc(F)ccc23)cnc1OC[C@@](C)(N)CC(C)C [Example 76, (S)-1-((5-(7-fluoroquinolin-4-yl)-3-methylpyridin-2-yl)oxy)-2,4-dimethylpentan-2-amine]	8.77
CC(C)C[C@](C)(N)COc1ncc(-c2ccnc3cc(F)ccc23)cc1Cl [Example 190, (S)-1-((3-chloro-5-(7-fluoroquinolin-4-yl)pyridin-2-yl)oxy)-2,4-dimethylpentan-2-amine]	8.92
